Experimental data taken from ChEMBL document CHEMBL1135301, “Imidazole-based ligands of the Src SH2 protein” (Bioorg Med Chem Lett, 2002).

target: Proto-oncogene tyrosine-protein kinase Src (Homo sapiens, UniProt P12931); assay: Binding affinity for p60 c-Src SH2 domain by scintillation proximity assay (SPA)
Sequence (P12931 2-536 limits assumed): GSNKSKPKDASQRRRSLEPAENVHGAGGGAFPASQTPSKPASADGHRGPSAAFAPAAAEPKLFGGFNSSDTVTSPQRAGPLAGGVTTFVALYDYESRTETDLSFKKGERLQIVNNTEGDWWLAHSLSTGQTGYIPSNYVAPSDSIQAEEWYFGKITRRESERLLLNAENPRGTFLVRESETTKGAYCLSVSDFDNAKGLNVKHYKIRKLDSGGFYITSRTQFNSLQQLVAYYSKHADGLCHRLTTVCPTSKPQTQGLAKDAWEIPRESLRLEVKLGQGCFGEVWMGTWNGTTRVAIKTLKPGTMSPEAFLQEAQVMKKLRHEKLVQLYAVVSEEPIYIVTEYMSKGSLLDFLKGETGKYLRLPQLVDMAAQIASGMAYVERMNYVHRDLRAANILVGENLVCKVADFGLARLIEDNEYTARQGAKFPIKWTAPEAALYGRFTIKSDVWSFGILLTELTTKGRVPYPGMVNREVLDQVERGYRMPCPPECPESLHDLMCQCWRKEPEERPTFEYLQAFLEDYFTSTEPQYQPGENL

Row | Compound | IC50 [µM]
1 | CC(=O)N[C@@H](Cc1ccc(C(F)(F)P(=O)(O)O)cc1)C(=O)NC(C)c1nc(SCC2CCCCC2)c(C(N)=O)n1C (stereo partly drawn) | 5.3
2 | CCOC(=O)c1c(SCC2CCCCC2)nc(C(C)NC(=O)[C@H](Cc2ccc(OP(=O)(O)O)cc2)NC(C)=O)n1C (stereo partly drawn) | 6.9
3 | CC(=O)N[C@@H](Cc1ccc(OP(=O)(O)O)cc1)C(=O)NC(C)c1nc(SCC2CCCCC2)c(C(N)=O)n1C (stereo partly drawn) | 8.6
